Reference: US5326788A, “Biological fluid purification system” (priority 1992, dated 1994)
Several values for one entry are separate records, joined by “and”; a condition that tells them apart may be missing. Equal values may be shown once.

Tests used:
[1] = Effect of hypericin on hematologic parameters and blood chemistries of mouse blood; design: Hematocrit: unit not given here; conditions: for BUN / Hb / Hematocrit / WBC / albumin / alk. phos. / calcium / chloride / cholesterol / creatinine / globulins / glucose / iron / phosphorous / retics / sodium / total bilirubin / total protein / triglycerides / uric acid: mouse blood
Method: Analogous experiments to assess the effect of hypericin on routine clinical chemistries and hematologic parameters were determined in a commercial laboratory on mouse blood using higher concentrations of hypericin. Eight blood samples drawn in parallel were treated with hypericin ranging in concentration from 2.5 micrograms/ml to 200 micrograms/ml of whole blood.

HIV = assay: Infectivity (ability to replicate in culture) of HIV derived from H9 cell cultures; assay type: cell-based, Human Immunodeficiency Virus (HIV)
Method: FIG. 2 is a graph showing the effect of hypericin and pseudohypericin on the infectivity of HIV cultured from an AIDS patient.
In FIG. 1, open squares represent hypericin-treated and pluses represent pseudohypericin treated HIV. […] Inactivation of the reverse transcriptase activity of the virions was not a result of a direct inhibition of reverse transcriptase activity per se, as incubation of either compound directly with purified reverse transcriptase from either avian myeloblastosis virus or murine leukemia virus had no effect on enzyme activity. Furthermore, aliquots of HIV derived from these H9 cell cultures lost the ability to replicate in culture when exposed to as little as 0.77 micrograms/ml of hypericin.

## Cc1cc(O)c2c(=O)c3c(O)cc(O)c4c5c(O)cc(O)c6c(=O)c7c(O)cc(C)c8c1c2c(c34)c(c78)c65 [hypericin]
[1]; 2.5 μg hypericin
  BUN: 18 mg/dL and 17 mg/dL
  Hb: 12.7 gm, dl
  Hematocrit: 38.3 and 37.8
  WBC: 4.6 /cumm and 4.8 /cumm
  albumin: 3.4 g/dL and 2.6 g/dL
  alk. phos.: 140 IU/l and 121 IU/l
  calcium: 6.7 mg/dL and 5.4 mg/dL
  chloride: 113 meq/l and 102 meq/l
  cholesterol: 149 mg/dL and 143 mg/dL
  creatinine: 0.4 mg/dL
  globulins: 2.6 g/dL and 3.2 g/dL
  glucose: 113 mg/dL and 68 mg/dL
  iron: 219 mog/dl and 169 mog/dl
  phosphorous: 8.1 mg/dL and 7.2 mg/dL
  retics: 1.5% and 2.3%
  sodium: 150 meq/l and 138 meq/l
  total bilirubin: 0.8 mg/dL and 1.2 mg/dL
  total protein: 6.0 g/dL and 5.8 g/dL
  triglycerides: 80 mg/dL and 77 mg/dL
  uric acid: 2.6 mg/dL and 2.8 mg/dL
[1]; 5.0 μg hypericin
  BUN: 18 mg/dL
  Hb: 12.9 gm, dl and 12.4 gm, dl
  Hematocrit: 38.5
  WBC: 4.7 /cumm and 4.5 /cumm
  albumin: 3.5 g/dL
  alk. phos.: 140 IU/l
  calcium: 7.0 mg/dL
  chloride: 113 meq/l
  cholesterol: 156 mg/dL
  creatinine: 0.4 mg/dL
  glucose: 112 mg/dL
  iron: 220 mog/dl
  phosphorous: 8.1 mg/dL
  retics: 2.2% and 2.0%
  sodium: 150 meq/l
  total bilirubin: 0.8 mg/dL
  triglycerides: 85 mg/dL
  uric acid: 2.7 mg/dL
[1]; 10 μg hypericin
  BUN: 18 mg/dL
  Hb: 12.8 gm, dl and 12.3 gm, dl
  Hematocrit: 37.8
  WBC: 4.5 /cumm
  albumin: 3.5 g/dL
  alk. phos.: 138 IU/l and 140 IU/l
  calcium: 6.7 mg/dL
  chloride: 112 meq/l
  cholesterol: 155 mg/dL
  creatinine: 0.3 mg/dL
  globulins: 3.0 g/dL
  glucose: 113 mg/dL
  iron: 218 mog/dl and 220 mog/dl
  phosphorous: 8.2 mg/dL and 8.1 mg/dL
  retics: 1.7% and 0.5%
  sodium: 148 meq/l
  total bilirubin: 0.8 mg/dL and 0.9 mg/dL
  total protein: 6.5 g/dL
  triglycerides: 67 mg/dL and 64 mg/dL
  uric acid: 2.9 mg/dL and 3.0 mg/dL
[1]; 25 μg hypericin
  BUN: 18 mg/dL
  Hb: 12.8 gm, dl
  Hematocrit: 37.7 and 37.9
  WBC: 4.7 /cumm
  albumin: 3.7 g/dL and 3.6 g/dL
  alk. phos.: 136 IU/l and 134 IU/l
  calcium: 6.7 mg/dL and 6.3 mg/dL
  chloride: 111 meq/l and 110 meq/l
  cholesterol: 166 mg/dL and 162 mg/dL
  creatinine: 0.3 mg/dL
  globulins: 3.1 g/dL and 3.3 g/dL
  glucose: 111 mg/dL and 110 mg/dL
  iron: 218 mog/dl and 219 mog/dl
  phosphorous: 8.2 mg/dL and 8.1 mg/dL
  retics: 0.8% and 0.3%
  sodium: 146 meq/l and 144 meq/l
  total bilirubin: 0.9 mg/dL
  total protein: 6.8 g/dL and 6.9 g/dL
  triglycerides: 80 mg/dL and 84 mg/dL
  uric acid: 3.9 mg/dL and 3.8 mg/dL
[1]; 50 μg hypericin
  BUN: 18 mg/dL
  Hb: 12.8 gm, dl
  Hematocrit: 38.1 and 38.0
  WBC: 4.8 /cumm
  albumin: 3.5 g/dL
  alk. phos.: 141 IU/l
  calcium: 6.6 mg/dL and 6.8 mg/dL
  chloride: 113 meq/l
  cholesterol: 152 mg/dL and 150 mg/dL
  creatinine: 0.4 mg/dL
  globulins: 3.0 g/dL
  glucose: 113 mg/dL and 114 mg/dL
  iron: 220 mog/dl and 221 mog/dl
  phosphorous: 8.3 mg/dL and 8.2 mg/dL
  retics: 1.4% and 2.5%
  sodium: 148 meq/l
  total bilirubin: 0.8 mg/dL and 0.9 mg/dL
  total protein: 6.5 g/dL
  triglycerides: 61 mg/dL and 62 mg/dL
  uric acid: 3.0 mg/dL and 2.8 mg/dL
[1]; 100 μg hypericin
  BUN: 18 mg/dL and 17 mg/dL
  Hb: 12.8 gm, dl and 13.2 gm, dl
  Hematocrit: 37.8 and 38.4
  WBC: 4.9 /cumm and 5.0 /cumm
  albumin: 3.5 g/dL and 3.4 g/dL
  alk. phos.: 140 IU/l and 138 IU/l
  calcium: 6.6 mg/dL
  cholesterol: 153 mg/dL and 151 mg/dL
  creatinine: 0.4 mg/dL
  globulins: 3.0 g/dL and 2.7 g/dL
  iron: 220 mog/dl and 216 mog/dl
  phosphorous: 8.2 mg/dL and 8.0 mg/dL
  retics: 0.8% and 0.7%
  sodium: 149 meq/l and 146 meq/l
  total bilirubin: 1.0 mg/dL
  total protein: 6.5 g/dL and 6.1 g/dL
  triglycerides: 92 mg/dL and 87 mg/dL
  uric acid: 3.2 mg/dL and 3.1 mg/dL
[1]; 200 μg hypericin
  BUN: 18 mg/dL
  Hb: 12.6 gm, dl and 12.7 gm, dl
  Hematocrit: 37.5 and 34.6
  WBC: 4.4 /cumm and 4.6 /cumm
  albumin: 3.5 g/dL
  alk. phos.: 139 IU/l and 140 IU/l
  calcium: 6.6 mg/dL
  chloride: 110 meq/l and 111 meq/l
  cholesterol: 155 mg/dL and 157 mg/dL
  creatinine: 0.4 mg/dL
  globulins: 3.3 g/dL and 2.9 g/dL
  glucose: 122 mg/dL and 111 mg/dL
  iron: 211 mog/dl and 215 mog/dl
  phosphorous: 7.9 mg/dL and 8.0 mg/dL
  retics: 2.8% and 0.6%
  sodium: 145 meq/l and 147 meq/l
  total bilirubin: 1.1 mg/dL
  total protein: 6.8 g/dL and 6.4 g/dL
  triglycerides: 92 mg/dL and 89 mg/dL
  uric acid: 3.8 mg/dL and 3.6 mg/dL
[1]; up to 200 micrograms/ml
  effect on clinical chemistries and hematological parameters (summary): did not significantly affect
HIV
  concentration abolishing infectivity of HIV (loss of ability to replicate in culture): 0.77 micrograms/ml
HIV; Human immunodeficiency virus 1, read-out: concentration abolishing infectivity of HIV (loss of ability to replicate in culture)
  minimal effective concentration: 0.77 µg/mL
